# US12527762B2 (priority 2021, dated 2026)
# Values joined by “and” are separate entries in the source; they are usually repeats but may differ in a detail not shown here. Identical values can stand only once. Like-named read-outs stand apart in the source and are kept apart here.
# Columns and labels:
# [1] = test system: MCF-7 breast cancer cell line; details: value from literature, read-out: IC50 (positive control); cited from earlier work
# [2] = test system: MDA-MB-231 breast cancer cell line; details: value from literature, read-out: IC50 (positive control); cited from earlier work
# [3] = test system: HCC1937 triple negative breast cancer cell line; assay: Luminescent cell viability assay (CellTiter glo), subtype-specific breast cancer cell lines; assay type: cell-based
# [4] = test system: MCF7/PR Paclitaxel resistant MCF7 cell line; assay: as above; assay type: cell-based
# [5] = test system: ZR-75-1 hormone-positive breast cancer cell line; assay: as above; assay type: cell-based; details: for IC50: ZR-75-1, hormone-positive breast cancer cell line; for IC50 fold lower than Tamoxifen: ZR-75-1 cells
# [6] = test system: MDA-MB-231 triple negative breast cancer cell line; assay: as above; assay type: cell-based; details: for IC50: MDA-MB-231, triple negative breast cancer cell line; for IC50 fold lower than Cisplatin: MDA-MB-231 cells
# [7] = test system: HCC1419 HER2-positive breast cancer cell line; assay: as above; assay type: cell-based; details: for IC50: HCC1419, HER2-positive breast cancer cell line; for IC50 fold lower than Herceptin: HCC1419 cells
# [8] = test system: MDA-MB-453 HER2-positive breast cancer cell line; assay: as above; assay type: cell-based
# [9] = test system: MIAPACA-2 pancreatic cancer cell line; details: value from literature, read-out: IC50 (positive control); cited from earlier work
# [10] = test system: PANC-1 pancreatic cancer cell line; details: value from literature, read-out: IC50 (positive control); cited from earlier work
# [11] = test system: Huh-7 liver cancer cell line; details: value from literature, read-out: IC50 (positive control); cited from earlier work
# [12] = test system: Hep-3B liver cancer cell line; details: value from literature, read-out: IC50 (positive control); cited from earlier work
# in vitro = details: African green monkey
# SARS-CoV-2 = assay: microbe, parasite or virus in culture; assay type: cell-based
# [13] = assay type: in vitro ADME; details: PAMPA
# Protocol: The permeability of an artificial membrane (barrier membrane from PermeaPad, 25 mm) to niclosamide of the cocrystal of Example 17 of the present invention was evaluated using the side-bi-side cell system, and compared with that of the niclosamide single material. 5 ml of an FeSSIF solution (37° C.) at pH 6.5 added with 3% (w/w) Kolliphor ELP was taken and contained in a donor cell, and […] of each sample was weighed and administered to the donor cell. 5 ml of a PBS solution of pH 7.4 added with 20% (w/w) HP-β-CD was added to the acceptor cell, the test was started, and 200 μl of the solution was taken 5 times from the acceptor cell every predetermined time and used as the test solution. Then, the acceptor cell was filled with the PBS solution of pH 7.4 added with 1 ml of 20% (w/w) HP-p-CD, and the total volume was maintained at 5 ml.
# [14] = Solubility of niclosamide in pH 7 buffer solution (HPLC); assay type: physicochemical
# Protocol: A pH 7 solution prepared by mixing 0.1 N potassium phosphate and 0.1 N sodium hydroxide was used as the pH 7 buffer solution. […] After 1 hour of stirring, 5 ml of a supernatant was filtered with a 0.45 μm PVDF filter, and then the amount of dissolved niclosamide was evaluated using the filtered solution as a sample.
# [15] = test system: Hep-3B liver cancer cell line; assay: Inhibition of cancer cell proliferation, CCK-8 assay; assay type: cell-based
# [16] = test system: Huh-7 liver cancer cell line; assay: Inhibition of cancer cell proliferation, CCK-8 assay; assay type: cell-based
# [17] = test system: PANC-1 pancreatic cancer cell line; assay: as above; assay type: cell-based
# [18] = test system: MDA-MB-231 breast cancer cell line; assay: as above; assay type: cell-based
# [19] = test system: MCF-7 breast cancer cell line; assay: as above; assay type: cell-based
# [20] = test system: H-1299 non-small cell lung cancer cell line; assay: as above; assay type: cell-based
# [21] = test system: A-549 non-small cell lung cancer cell line; assay: as above; assay type: cell-based
# [22] = test system: MIAPACA-2 pancreatic cancer cell line; assay: as above; assay type: cell-based
# [23] = Artificial membrane permeability of camostat, side-bi-side cell system (GIT-0-Lipid on PVDF membrane); assay type: in vitro ADME
# Protocol: As an artificial membrane, 200 μl of a GIT-0-Lipid solution was used by dropping on the center of a 25 mm hydrophobic PVDF membrane. 5 ml of a 37° C. pH 5.0 FeSSIF solution was taken and contained in a donor cell, and 20 mg of the sample was weighed and administered to the donor cell. The test was started after adding 5 ml of an ethyl alcohol. pH 7.4 PBS buffer (1:9, v/v) solution to an acceptor cell, and 200 μl of the solution was taken five times from the acceptor cell every predetermined time and used as a test solution. Then, the acceptor cell was filled with 1 ml of the ethyl alcohol: pH 7.4 PBS buffer (1:9, v/v) solution to maintain a total volume of 5 ml.
# [24] = Severe acute respiratory syndrome coronavirus 2, SARS-CoV-2 in Vero cells, 24 hours after infection, read-out: IC50
# [25] = SARS-CoV-2 in Vero cells, 24 hours after infection, read-out: IC50
compound,measurement,setting,value
"CC(=O)O[C@@]12CO[C@@H]1C[C@H](O)[C@@]1(C)C(=O)[C@H](O)C3=C(C)[C@@H](OC(=O)[C@H](O)[C@@H](NC(=O)OC(C)(C)C)c4ccccc4)C[C@@](O)([C@@H](OC(=O)c4ccccc4)[C@H]21)C3(C)C [Docetaxel, reference compound]",IC50,[1],0.763 µM
same,IC50,[2],0.635 µM
same,IC50,[3]; Homo sapiens,≥ 25 µM
same,IC50,[4]; Homo sapiens,11.4 µM
same,IC50,[5]; Homo sapiens,24.2 µM
same,IC50,[6]; Homo sapiens,≥ 25 µM
same,IC50,[7]; Homo sapiens,≥ 25 µM
same,IC50,[8]; Homo sapiens,≥ 25 µM
Nc1ccn([C@@H]2O[C@H](CO)[C@@H](O)C2(F)F)c(=O)n1 [Gemcitabine],IC50,[9],92.7 µM
same,IC50,[10],42.9 µM
CNC(=O)c1cc(Oc2ccc(NC(=O)Nc3ccc(Cl)c(C(F)(F)F)c3)cc2)ccn1 [Sorafenib],IC50,[11],6 µM
same,IC50,[12],12.3 µM
CCN(CC)CCCC(C)Nc1ccnc2cc(Cl)ccc12 (stereo not shown) [Chloroquine],CC50,in vitro,> 150 µM
same,IC50,SARS-CoV-2; [24],7.47 µM
O=C(Nc1ccc([N+](=O)[O-])cc1Cl)c1cc(Cl)ccc1O [Niclosamide],Cumulative permeation amount of drug,[13]; 4 mg/ml,1.18 μg/ml/cm^2/h
same,pH 7 solubility,[14],hardly detected
same,pH 7 solubility,[14]; 1 h,<0.3 μg/ml
"N.N.[Cl][Pt][Cl] [Cisplatin, reference compound]",IC50,[3],12.3 µM
same,IC50,[6],≥ 25 µM
Cc1cccc(C)c1OCC(=O)N[C@@H](Cc1ccccc1)[C@@H](O)C[C@H](Cc1ccccc1)NC(=O)[C@H](C(C)C)N1CCCNC1=O [Lopinavir],CC50,in vitro,> 50 µM
same,IC50 fold higher than the IC50 of the cocrystal,SARS-CoV-2; SARS-CoV-2 in Vero cells,about 64.38 fold
same,"SI (selectivity index, CC50/IC50)",SARS-CoV-2; SARS-CoV-2 in Vero cells,4.85
same,IC50,SARS-CoV-2; [24],10.3 µM
CN(C)C(=O)COC(=O)Cc1ccc(OC(=O)c2ccc(NC(=N)N)cc2)cc1.O=C(Nc1ccc([N+](=O)[O-])cc1Cl)c1cc(Cl)ccc1O [Example 1],IC50 fold lower than Sorafenib,[15]; Hep-3B cells,297 fold
same,IC50,"[15]; Hep-3B, 48 hours drug treatment",0.0413 µM
same,CC50,Vero cells,> 50 µM
same,IC50,"[16]; Huh-7, 48 hours drug treatment",0.134 µM
same,IC50 fold lower than Sorafenib,[16]; Huh-7 cells,44 fold
same,IC50,"[17]; PANC-1, 48 hours drug treatment",0.0993 µM
same,IC50 fold lower than gemcitabine,[17]; PANC-1 cell line,432 fold
same,IC50,"[18]; MDA-MB-231, 48 hours drug treatment",0.126 µM
same,IC50 fold lower than docetaxel,[18]; MDA-MB-231 cells,5 fold
same,IC50,"[19]; MCF-7, 48 hours drug treatment",0.428 µM
same,IC50 fold lower than docetaxel,[19]; MCF-7 cells,1.7 fold
same,IC50,"[20]; H-1299, 48 hours drug treatment",0.381 µM
same,IC50 fold lower than gefitinib,[20]; H-1299 cells,45 fold
same,IC50,[3],4.98 µM
same,IC50,"[21]; A-549, 48 hours drug treatment",0.976 µM
same,IC50 fold lower than gefitinib,[21]; A-549 cells,13 fold
same,IC50,[4],5.69 µM
same,IC50,[5],5.37 µM
same,IC50 fold lower than Tamoxifen,[5],1.7 fold
same,IC50,[6],1.75 µM
same,IC50 fold lower than Cisplatin,[6],14 fold
same,IC50 fold lower than gemcitabine,[22]; MIAPACA-2 cell line,127 fold
same,IC50,"[22]; MiaPaCa-2, 48 hours drug treatment",0.729 µM
same,IC50,[7],1.27 µM
same,IC50 fold lower than Herceptin,[7],19 fold
same,IC50,[8],7.46 µM
same,"SI (selectivity index, CC50/IC50)",SARS-CoV-2; SARS-CoV-2 in Vero cells,306
same,IC50,SARS-CoV-2; [25],0.16 µM
CCC(CC)COC(=O)[C@H](C)N[P@](=O)(OC[C@H]1O[C@@](C#N)(c2ccc3c(N)ncnn23)[C@H](O)[C@@H]1O)Oc1ccccc1 [Remdesivir],CC50,in vitro,> 50 µM
same,IC50 fold higher than the IC50 of the cocrystal,SARS-CoV-2; SARS-CoV-2 in Vero cells,about 21.75 fold
same,"SI (selectivity index, CC50/IC50)",SARS-CoV-2; SARS-CoV-2 in Vero cells,14.35
same,IC50,"SARS-CoV-2; Severe acute respiratory syndrome coronavirus 2, Vero, 24 h",3.48 µM
"CC(=O)O[C@H]1C(=O)[C@@]2(C)[C@H]([C@H](OC(=O)c3ccccc3)[C@]3(O)C[C@H](OC(=O)[C@H](O)[C@@H](NC(=O)c4ccccc4)c4ccccc4)C(C)=C1C3(C)C)[C@]1(OC(C)=O)CO[C@@H]1C[C@@H]2O [Paclitaxel, reference compound]",IC50,[4]; Homo sapiens,13.7 µM
CN(C)C(=O)COC(=O)Cc1ccc(OC(=O)c2ccc(NC(=N)N)cc2)cc1.O=C(Nc1ccc([N+](=O)[O-])cc1Cl)c1cc(Cl)ccc1O [Example 17],CC50,Vero cells,> 50 µM
same,Cumulative permeation amount of drug,[13],2.03 μg/ml/cm^2/h
same,"cumulative permeation amount of niclosamide, fold better than niclosamide single material",[13],1.72 fold
same,IC50,[3],4.55 µM
same,IC50,[4],5.82 µM
same,IC50,[5],6.29 µM
same,IC50 fold lower than Tamoxifen,[5],1.4 fold
same,IC50,[6],2.25 µM
same,IC50 fold lower than Cisplatin,[6],11 fold
same,IC50,[7],1.5 µM
same,IC50 fold lower than Herceptin,[7],16 fold
same,pH 7 solubility,[14],55.2 μg/ml
same,IC50,[8],7.48 µM
same,"SI (selectivity index, CC50/IC50)",SARS-CoV-2; SARS-CoV-2 in Vero cells,313
same,IC50,SARS-CoV-2; [25],0.16 µM
CN(C)C(=O)COC(=O)Cc1ccc(OC(=O)c2ccc(NC(=N)N)cc2)cc1.O=C(Nc1ccc([N+](=O)[O-])cc1Cl)c1cc(Cl)ccc1O [Example 21],Cumulative permeation amount J,"[23]; camostat, donor pH 5.0 FeSSIF 37° C., acceptor ethyl alcohol:pH 7.4 PBS (1:9)",876.29 μg/ml/cm^2/h and 876.26 μg/ml/cm^2/h
same,"cumulative permeation amount of camostat, fold better than camostat single material",[23]; cocrystal vs camostat single material,1.56 fold
